From ChEMBL document CHEMBL1201862, “PubChem BioAssay data set” (2004) come the findings set out here.

Test systems include NCI-H460; HCT-15; MCF7; TK-10; SNB-19; OVCAR-8; NCI-H226; SNB-75; Hs-578T; EKVX; MDA-N; SF-295; RXF 393; NCI/ADR-RES; HOP-62; T47D; LOX IMVI; UACC-257; DU-145; CAKI-1.
Holding throughout (assay): DTP human tumour cell line panel, 48 h

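A five-concentration, 48-hour dose response in 96-well plates underlies each endpoint, interpolated linearly between surrounding concentrations. Abbreviation: GI50, concentration required for 50% inhibition of growth.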 The source made the active and inactive calls. No stated cut-off is given here; in the data, active = GI50 up to about 1.1 µM and inactive = higher.

For orientation: GI50 means the concentration giving 50% growth inhibition. As for `COC(=O)c1c(O)ccc2c1c1c(n2Cc2ccccc2)C(=O)c2ccccc2C1=O`, the GI50 with NCI-H460 was 10.7 µM (inactive); in the assay on HCT-15, 12.6 µM; with MCF7, 12.1 µM (inactive); with TK-10 it was 17.1 µM (inactive); with SNB-19, 14.9 µM (inactive); with OVCAR-8, 12.2 µM (inactive). Moreover, the GI50 in the assay on NCI-H226 was 18.3 µM (inactive); with SNB-75, 15.6 µM (inactive); with Hs-578T it was 18.5 µM (inactive); in the assay with EKVX, 20.6 µM (inactive); in the assay with MDA-N, 20.1 µM (inactive); with SF-295, 19.4 µM (inactive). The GI50 was 14.1 µM (inactive) in the assay on RXF 393; 12.6 µM (inactive) with NCI/ADR-RES; 23.6 µM (inactive) with HOP-62; 12.9 µM (inactive) with T47D; 15.6 µM (inactive) in the assay on LOX IMVI; 17.6 µM (inactive) in the assay on UACC-257. For the same compound, the GI50 in the assay with DU-145 was 18.3 µM (inactive); in the assay on CAKI-1, 18.7 µM (inactive).
Consider `Cn1c(=O)c2c(nc3sc4ccccc4c(=O)n32)n(C)c1=O`, for which the GI50 is > 100 µM (inactive) with NCI-H460; greater than 100 µM in the assay on HCT-15; > 100 µM (inactive) with MCF7; > 100 µM (inactive) in the assay with TK-10; > 100 µM (inactive) in the assay with SNB-19; > 100 µM (inactive) in the assay with OVCAR-8. For the same compound, the GI50 in the assay on NCI-H226 is > 100 µM (inactive); in the assay on SNB-75, 68.4 µM (inactive); with Hs-578T, > 100 µM (inactive); with EKVX it was > 100 µM (inactive); with MDA-N, > 100 µM (inactive); with SF-295, > 100 µM (inactive). In addition, the GI50 in the assay with RXF 393, with NCI/ADR-RES, in the assay on HOP-62, in the assay with T47D, with LOX IMVI and in the assay on UACC-257 was > 100 µM (inactive) in each case. Besides, the GI50 with DU-145 and with CAKI-1 was > 100 µM (inactive) throughout.
With `OC(CCN1CCN(CCOC(c2ccccc2)c2ccccc2)CC1)c1ccc(Br)cc1` (stereo not given), the GI50 in the assay with NCI-H460 is 8.11 µM (inactive); in the assay with HCT-15, 6.43 µM; in the assay on MCF7, 13.3 µM (inactive); in the assay on TK-10, 13.7 µM (inactive); with SNB-19 it was 15.8 µM (inactive); in the assay with OVCAR-8 it was 6.25 µM (inactive). Moreover, the GI50 in the assay with NCI-H226 is 15 µM (inactive); in the assay with SNB-75 it was 12.8 µM (inactive); in the assay with Hs-578T it was 16 µM (inactive); in the assay on EKVX, 11 µM (inactive); in the assay with MDA-N it was 10.9 µM (inactive); with SF-295 it was 15.6 µM (inactive). The GI50 in the assay with RXF 393 was 9.38 µM (inactive); in the assay with NCI/ADR-RES it was 8.36 µM (inactive); in the assay on HOP-62, 15.1 µM (inactive); in the assay on T47D, 10.4 µM (inactive); in the assay on LOX IMVI, 10 µM (inactive); in the assay with UACC-257, 3.47 µM (inactive). Further, the GI50 in the assay on DU-145 is 16 µM (inactive); in the assay on CAKI-1, 12.2 µM (inactive).
Take `CCCC1=C(OC)C(=O)c2c(C)cc(Cl)nc2C1=O`: the GI50 is 13.7 µM (inactive) with NCI-H460; 3.05 µM in the assay with HCT-15; 2.47 µM (inactive) in the assay with MCF7; 19.9 µM (inactive) with TK-10; 14.7 µM (inactive) in the assay on SNB-19; 8.89 µM (inactive) in the assay on OVCAR-8. In addition, the GI50 with NCI-H226 was 16.7 µM (inactive); in the assay on SNB-75, 7.62 µM (inactive); in the assay with Hs-578T it was 3.75 µM (inactive); in the assay with EKVX it was 7.66 µM (inactive); in the assay on MDA-N it was 1.73 µM (inactive); in the assay with SF-295, 14.7 µM (inactive). In addition, the GI50 was 7.67 µM (inactive) in the assay on RXF 393; 4.55 µM (inactive) with NCI/ADR-RES; 15.5 µM (inactive) with HOP-62; 2.99 µM (inactive) in the assay on T47D; 2.01 µM (inactive) in the assay with LOX IMVI; 6.53 µM (inactive) in the assay on UACC-257. For the same compound, the GI50 with DU-145 was 15.1 µM (inactive); with CAKI-1, 8.97 µM (inactive).
On to `CCCCCCCCCCCCCCCCCCOC(COP(=O)(O)OCC1OC(n2cc(F)c(=O)[nH]c2=O)CC1O)COP(=O)(O)OCC1OC(n2ccc(N)nc2=O)C(O)C1O` (stereo not given), for which the GI50 is 0.159 µM (active) in the assay on NCI-H460; 31.4 µM in the assay with HCT-15; 2.37 µM (inactive) in the assay on MCF7; 33.2 µM (inactive) in the assay on TK-10; 6.46 µM (inactive) in the assay with SNB-19; 4.51 µM (inactive) with OVCAR-8. The GI50 is > 87.1 µM (inactive) with NCI-H226; 22.6 µM (inactive) in the assay on SNB-75; > 100 µM (inactive) in the assay with Hs-578T; > 100 µM (inactive) in the assay on EKVX; > 95.5 µM (inactive) in the assay with MDA-N; 2.58 µM (inactive) in the assay on SF-295. Further, the GI50 in the assay on RXF 393 is 16.4 µM (inactive); in the assay on NCI/ADR-RES it was 6.49 µM (inactive); in the assay with HOP-62 it was 1.95 µM (inactive); in the assay on T47D, > 100 µM (inactive); in the assay on LOX IMVI, 1.14 µM (inactive); in the assay on UACC-257, > 79.3 µM (inactive). The GI50 is 3.33 µM (inactive) in the assay with DU-145 and 13.2 µM (inactive) in the assay with CAKI-1.
As for `C=C(CCC(=O)N(CCc1c[nH]c2ccccc12)C(=O)c1ccccc1CSCC)C(=O)OC`, the GI50 was 32.2 µM (inactive) in the assay with NCI-H460; 26.5 µM in the assay on HCT-15; 19.9 µM (inactive) in the assay on MCF7; 66.5 µM (inactive) with TK-10; 56.5 µM (inactive) with SNB-19; 48.4 µM (inactive) in the assay with OVCAR-8. The GI50 in the assay on NCI-H226 was 53.7 µM (inactive); with SNB-75, > 83.8 µM (inactive); in the assay on Hs-578T, 44.5 µM (inactive); in the assay on EKVX, 48.2 µM (inactive); with MDA-N, 38.4 µM (inactive); with SF-295, 24.7 µM (inactive). Further, the GI50 in the assay with RXF 393 was > 47.5 µM (inactive); in the assay on NCI/ADR-RES, 27.3 µM (inactive); with HOP-62 it was > 69.2 µM (inactive); with T47D, 21.9 µM (inactive); in the assay with LOX IMVI it was 29.2 µM (inactive); with UACC-257, 35.3 µM (inactive). The GI50 in the assay on DU-145 is > 95.5 µM (inactive); in the assay on CAKI-1, 84.1 µM (inactive).
For the compound `O=C1CC2CC(CC3(CO3)C2)C1F` (stereo not given), the GI50 is > 100 µM (inactive) with NCI-H460; greater than 100 µM in the assay with HCT-15; > 100 µM (inactive) in the assay on MCF7; > 100 µM (inactive) in the assay with TK-10; > 100 µM (inactive) in the assay on SNB-19; > 100 µM (inactive) with OVCAR-8. The GI50 in the assay on NCI-H226 is > 100 µM (inactive); in the assay on SNB-75, 48.2 µM (inactive); in the assay with Hs-578T, > 100 µM (inactive); in the assay with EKVX, > 100 µM (inactive); with MDA-N, > 100 µM (inactive); with SF-295, > 100 µM (inactive). Also, the GI50 in the assay on RXF 393, with NCI/ADR-RES, in the assay on HOP-62, with T47D, with LOX IMVI and with UACC-257 was > 100 µM (inactive) throughout. Further, the GI50 in the assay on DU-145 and in the assay with CAKI-1 was > 100 µM (inactive) each time.
With `O=c1[nH]c2nccn2c(Cl)c1Br`, the GI50 in the assay on NCI-H460 was 24.7 µM (inactive); with HCT-15 it was 16.6 µM; with MCF7, 42.6 µM (inactive); in the assay on TK-10, > 100 µM (inactive); in the assay with SNB-19, 27.7 µM (inactive); in the assay with OVCAR-8, 19.2 µM (inactive). In addition, the GI50 with NCI-H226 is 35.2 µM (inactive); in the assay with SNB-75, 33.7 µM (inactive); with Hs-578T, 26.9 µM (inactive); in the assay on EKVX, 19.7 µM (inactive); in the assay on MDA-N it was 20 µM (inactive); in the assay on SF-295, > 100 µM (inactive). Moreover, the GI50 in the assay on RXF 393 was 1.94 µM (inactive); in the assay with NCI/ADR-RES it was 22.9 µM (inactive); in the assay with HOP-62 it was > 100 µM (inactive); in the assay with T47D, 14.8 µM (inactive); with LOX IMVI, 18 µM (inactive); in the assay with UACC-257 it was 16.4 µM (inactive). The GI50 in the assay on DU-145 is 83.8 µM (inactive); with CAKI-1, 22.4 µM (inactive).
For `O=[N+]([O-])c1c(F)c(F)c2c(c1F)Nc1ccccc1S2`, the GI50 in the assay on NCI-H460 is 6 µM (inactive); in the assay with HCT-15, 4.83 µM; in the assay with MCF7, 5 µM (inactive); in the assay on TK-10 it was 23.8 µM (inactive); with SNB-19, 7.23 µM (inactive); in the assay on OVCAR-8, 1.96 µM (inactive). The GI50 in the assay with NCI-H226 is 16.9 µM (inactive); with SNB-75, 17.3 µM (inactive); in the assay with Hs-578T, 7.1 µM (inactive); with EKVX, 6.44 µM (inactive); in the assay with MDA-N, 4.42 µM (inactive); in the assay with SF-295 it was 17.3 µM (inactive). In addition, the GI50 was 2.25 µM (inactive) in the assay with RXF 393; 25.9 µM (inactive) in the assay on NCI/ADR-RES; 12.6 µM (inactive) in the assay with HOP-62; 3.03 µM (inactive) with T47D; 1.86 µM (inactive) in the assay on LOX IMVI; 1.49 µM (inactive) in the assay on UACC-257. In addition, the GI50 with DU-145 is 4.06 µM (inactive); with CAKI-1 it was 3.99 µM (inactive).
Regarding `Nc1nc(=S)n(-c2ccc(Cl)cc2)c2nc3ccccc3cc12`, the GI50 was 46.2 µM (inactive) in the assay on NCI-H460; 39.9 µM with HCT-15; 15.4 µM (inactive) in the assay on MCF7; 28.7 µM (inactive) with TK-10; > 100 µM (inactive) in the assay on SNB-19; 50.1 µM (inactive) with OVCAR-8. Also, the GI50 in the assay on NCI-H226 is 50.6 µM (inactive); with SNB-75, 43.5 µM (inactive); with Hs-578T, 83.2 µM (inactive); in the assay on EKVX it was 15.3 µM (inactive); in the assay on MDA-N, 90.8 µM (inactive); with SF-295, 64.6 µM (inactive). Also, the GI50 was 57.9 µM (inactive) with RXF 393; > 100 µM (inactive) with NCI/ADR-RES; 55.8 µM (inactive) in the assay on HOP-62; 18.7 µM (inactive) in the assay on T47D; 44.1 µM (inactive) with LOX IMVI; > 100 µM (inactive) in the assay on UACC-257. Besides, the GI50 in the assay on DU-145 was 43.6 µM (inactive); with CAKI-1, 30.1 µM (inactive).
